Assay results as given in patent US9987277B2, “Carboxamide 4-[(4-pyridyl)amino] pryimidines for the treatment of hepatitis C” (Janssen Sciences Ireland UC, priority 2006, dated 2018).

tested on: HCV type 1b replicon (NS3-NS5B) in Huh-7 luc/neo cells; assay: HCV replicon assay (Huh-Luc luciferase); assay type: cell-based; details: Hepatitis C virus, Huh-7, 72 h, three days incubation, luciferase activity
From the text: The compounds of formula (I) were examined for activity in the inhibition of HCV RNA replication in a cellular assay. […] The cellular assay was based on a bicistronic expression construct, as described by Lohmann et al. (1999) Science vol. 285 pp. 110-113 with modifications described by Krieger et al. (2001) Journal of Virology 75: 4614-4624, in a multi-target screening strategy. In essence, the method was as follows.
The assay utilized the stably transfected cell line Huh-7 luc/neo (hereafter referred to as Huh-Luc). This cell line harbors an RNA encoding a bicistronic expression construct comprising the wild type NS3-NS5B regions of HCV type 1b translated from an Internal Ribosome Entry Site (IRES) from encephalomyocarditis virus (EMCV), preceded by a reporter portion (FfL-luciferase), and a selectable marker portion (neo^R, neomycine phosphotransferase). The construct is bordered by 5′ and 3′ NTRs (non-translated regions) from HCV type 1b. Continued culture of the replicon cells in the presence of G418 (neo^R) is dependent on the replication of the HCV RNA. The stably transfected replicon cells that express HCV RNA, which replicates autonomously and to high levels, encoding inter alia luciferase, are used for screening the antiviral compounds.
The replicon cells were plated in 384 well plates in the presence of the test and control compounds which were added in various concentrations. Following an incubation of three days, HCV replication was measured by assaying luciferase activity (using standard luciferase assay substrates and reagents and a Perkin Elmer ViewLux™ ultraHTS microplate imager). Replicon cells in the control cultures have high luciferase expression in the absence of any inhibitor. The inhibitory activity of the compound on luciferase activity was monitored on the Huh-Luc cells, enabling a dose-response curve for each test compound. EC50 values were then calculated, which value represents the amount of the compound required to decrease by 50% the level of detected luciferase activity, or more specifically, the ability of the genetically linked HCV replicon RNA to replicate.
The following Table 1 lists compounds that were tested for activity in the inhibition of HCV RNA replication in a cellular assay according to the procedure described above. Table 1 provides as well structure characterization data for the compounds of formula (I) as described herein. […] In each case, the expected parent ion was observed, and the Table further provides the LC conditions under which the mass spectrum was measured as well as the retention time of the observed product.

First: COc1cnc(-c2cc(Cl)ccc2F)nc1Nc1ccncc1C(=O)NCCCN1CCCC1=O [compound 1]
Second: COc1cnc(-c2cc(Cl)ccc2F)nc1Nc1ccncc1C(=O)NCCCN1CCCCC1C (stereo not drawn) [compound 13]
The EC50 of the first is 6.5-fold lower: 84 nM for the first, 550 nM for the second. The first is the more potent here.

First: COc1cnc(-c2cc(Cl)ccc2F)nc1Nc1ccncc1C(=O)NCC(F)(F)F [compound 2]
Second: COc1cnc(-c2cc(Cl)ccc2F)nc1Nc1ccncc1C(=O)NCCN [compound 14]
The EC50 of the first is 3.2-fold lower: 1160 nM for the first, 3670 nM for the second. The first is the more potent here.

Going from `COc1cnc(-c2cc(Cl)ccc2F)nc1Nc1ccncc1C(=O)NC[C@H]1CCCO1` [compound 3] to `COc1cnc(-c2cc(Cl)ccc2F)nc1Nc1ccncc1C(=O)NCCCN1CCOCC1` [compound 9], the EC50 falls from 2640 nM to 1100 nM (2.4-fold). The second is the more potent here.

Going from `CCOC(=O)CNC(=O)c1cnccc1Nc1nc(-c2cc(Cl)ccc2F)ncc1OC` [compound 4] to `COc1cnc(-c2cc(Cl)ccc2F)nc1Nc1ccncc1C(=O)NCCNCC(C)O` (stereo not drawn) [compound 11], the EC50 falls from 4620 nM to 1140 nM (4.1-fold).

Going from `COc1cnc(-c2cc(Cl)ccc2F)nc1Nc1ccncc1C(=O)NCCCn1ccnc1` [compound 5] to `COc1cnc(-c2cc(Cl)ccc2F)nc1Nc1ccncc1C(=O)NCCNCCO` [compound 10], the EC50 rises from 921 nM to 1480 nM (1.6-fold).

`O=C(NC1CC1)c1cnccc1Nc1nc(-c2cc(Cl)ccc2F)ncc1C1CCCC1` [compound 6] and `O=C(NCCO)c1cnccc1Nc1nc(-c2cc(Cl)ccc2F)ncc1C1CCCC1` [compound 8] are within 1.5-fold of each other in EC50: 12700 nM for the first, 16400 nM for the second.
